Experiments:
[1] = test system: autoimmune myocarditis model rats; assay: Autoimmune myocarditis model; format: in vivo, Lewis rats; settings: for left ventricular end-diastolic transverse diameter LVIDd / left ventricular end-systolic transverse diameter LVIDs / ejection fraction EF / short-axis fractional shortening FS / serum CK-MB level: 30 mg/kg oral gavage, 4 weeks; for left ventricular end-diastolic transverse diameter LVIDd / left ventricular end-systolic transverse diameter LVIDs: FIG. 79; for ejection fraction EF / short-axis fractional shortening FS: FIG. 80; for serum CK-MB level: FIG. 81
Method: 8-week-old male SPF-grade Lewis rats were adaptively fed for one week to construct an autoimmune myocarditis model. The rats were divided into two groups, normal control group (normal rats, routine feeding) and model group, in which porcine cardiac myosin used to induce autoimmunity and Freund's adjuvant were fully mixed in 1:1 in the model group (purified porcine cardiac myosin was dissolved in PBS solution, with its concentration being controlled to 10 g/L, under sterile conditions the solution was mixed with the complete Freund's adjuvant CFA in 1:1 equal volume and emulsified completely, so that it became a homogeneous emulsion), a total of 0.2 ml of the immunization mixture was injected subcutaneously into multiple points such as the bilateral groin and axilla of the rats. Normal control rats were immunized with myosin-free PBS and CFA emulsion. From the 14th day after immunization, the model groups were administrated in groups, and were divided into three groups: model group (model, treated with 0.5% CMC-Na by oral gavage, n=8) TJ01-013 treatment group (TJ01-013, 30 mg/kg TJ01-013 by oral gavage, n=8), I-14-1 treatment group (I-14-1, 30 mg/kg I-14-1 by oral gavage, n=8). A normal control group (Control, treated with 0.5% CMC-Na by oral gavage, n=8) was further provided, and the administration of the drug was started immediately after grouping, and the drug was administered for a total of 4 weeks. At the end of the administration, rats were weighed, anesthetized and blood was taken, and serum was extracted and the corresponding physiological indexes were detected. After euthanasia, the rats' hearts were stripped and weighed, and the organ coefficients of the hearts were calculated.
After the end of administration, rats were weighed, anesthetized with 10% chloral hydrate via intraperitoneal injection, and then subjected to echocardiography in the supine and slightly left lateral position after chest hair removal, and the average value was taken from 3 repetitions. The detection indexes include left ventricular end-diastolic transverse diameter LVIDd, left ventricular end-systolic transverse diameter LVIDs, short-axis fractional shortening FS, and ejection fraction EF.

CUP model mice = assay: Multiple sclerosis CUP model; format: in vivo, C57BL/6; settings: for number of open arm entries (elevated cross maze) / walking distance (elevated cross maze) / open arm time (elevated cross maze) / number of crossing over the platform (water maze): 30 mg/kg oral gavage; for number of open arm entries (elevated cross maze): FIG. 86; for walking distance (elevated cross maze): FIG. 87; for open arm time (elevated cross maze): FIG. 88; for number of crossing over the platform (water maze): FIG. 89
Method: After one week of adaptive feeding in 7-8 weeks C57BL/6 female […], they were randomly divided into four groups according to their body weights: the normal control group (Control, 0.5% CMC-Na treatment by oral gavage, n=8), the model group (model, 0.5% CMC-Na treatment by oral gavage, n=8), TJ01-013 treatment group (TJ01-013, 30 mg/kg TJ01-013 by oral gavage, n=8), I-14-1 treatment group (I-14-1, oral gavage 30 mg/kg I-14-1, n=8). The normal control group was fed with the basal diet throughout for 12 weeks, and the model group, TJ01-013 treatment group, and I-14-1 treatment group were fed with 0.2% CUP diet throughout. All groups were administered 5 ml/kg in a volume of 5 ml/kg for a total of 12 weeks starting 6 weeks after modeling.
The elevated cross maze consisted of two open arms (35 cm×6 cm) and two closed arms (35 cm×6 cm×14 cm), with the middle area (6 cm×6 cm) and a height of 70 cm above the ground, and the mice were placed in the middle area facing the open arms, and were active for 5 min in a 50 cm×50 cm open field prior to the start of the test. During the test, the activity time, the activity distance and the number of open arm entries in the mice were counted. Each mouse was wiped with 75% alcohol on the maze after the test.
The mice were placed in a basin with a diameter of 70 cm and a height of 30 cm, and the water temperature was about 22-24° C. The basin was divided into four quadrants, and a platform with a diameter of 5 cm was placed in the target quadrant, which was placed 1 cm below the surface of the water. The mice were acclimatized for 1 day before the official test and learned for 4 days, during learning, the mice entered the water in the direction of facing the wall of the basin, and were given 60 s to search for the platform, or else were guided to learn for 30 s on the platform, and the time that the mice found the platform during learning was recorded. The platform was withdrawn on the day of the test, and the number of crossing over the platform after entering from the opposite quadrant of the target quadrant in mice was recorded to determine the spatial learning and memory ability of the mice.

Structure (SMILES) | left ventricular end-diastolic transverse diameter LVIDd [1] | left ventricular end-systolic transverse diameter LVIDs [1] | ejection fraction EF [1] | short-axis fractional shortening FS [1] | serum CK-MB level [1] | treatment of TJ01-013 compared with I-14-1 ([1]; LVIDd/LVIDs, EF/FS, CK-MB) | number of open arm entries (elevated cross maze) (CUP model mice) | walking distance (elevated cross maze) (CUP model mice) | open arm time (elevated cross maze) (CUP model mice) | number of crossing over the platform (water maze) (CUP model mice) | treatment of TJ01-013 compared with I-14-1 (CUP model mice; per readout of the block)
O=C(O)C[S+]([O-])c1cc(NS(=O)(=O)c2ccc(Br)cc2)c2ccccc2c1O (centres unmarked) [I-1] | reduce | reduce | increase | increase | decrease | significantly better | significantly reduced | reduced | significantly decreased | increased | significantly better
O=C(O)C[S+]([O-])c1cc(NS(=O)(=O)c2ccc(C(F)(F)F)cc2)c2ccccc2c1O (centres unmarked) [I-14-1] | reduce | reduce | increase | increase | decrease |  | significantly reduced | reduced | significantly decreased | increased | 

From patent US20260027073A1, “USE OF SMALL-MOLECULE COMPOUND HAVING NAPHTHYLAMINE STRUCTURE” (HANGZHOU PHECDAMED CO., LTD., priority 2023, published 2026)
